We go through 19 molecules from PMC6309140, “Synthesis and Evaluation of a New Type of Small Molecule Epigenetic Modulator Containing Imidazo[1,2-b][1,2,4]triazole Motif” (Frontiers in Chemistry, 2018).

The test system of data set [1] is EGFP reporter gene silenced by DNA methylation (B2-17 cells). The data set is described as follows: Compound effective assay: derepression of EGFP reporter in B2-17 reporter cells (image-based, titration). The format is cell-based. The note with it: for Emax: 72 h, read-out: Maximal RGFP% (maximal percentage of EGFP+ cells in the dose-response curve); for activity of derepressing the EGFP reporter gene silenced by DNA methylation (in words): compared with hit compound LX-3; for EC50: dose-response of EGFP+ cells, read-out: EC50 (relative half maximal effect concentration). The text has this: (§1) To identify novel small molecules targeting gene repression, we devised an image-based high-throughput screening system using the engineered HEK 293 F cell (termed as B2-17 cells) as report cell line. A chemical library containing 308,251 small molecules was screened in this system. Purposed for unbiased compound screening, this library had been used in a variety of studies (Sun et al., [2012]; Wang et al., [2013]; Dong et al., [2015]; Li et al., [2016]). Hundred and fifty eight compounds which reactivated reporter genes in more than half of cells were selected as hits. Next, we performed titration experiments for all these hits in the B2-17 cell line. The efficacy of each compound was evaluated by its maximal percentage of EGFP^+ cells in the dose-response curve (maximal RGFP) and relative half maximal effect concentration (EC50). The toxicity of the hits was also tested in parallel, measured by number of viable cells in each treatment. The assay is based on quantitative analysis of ATP, an indicator of metabolically active cells. For each compound, we calculated the relative half maximal growth inhibitory concentration (IC50), based on the abovementioned assay.
Procedure for cell culture and establishment of the reporter cell line were reported in our previously published paper (Li et al., [2018]).
Before plating cells, 384-well plates (ViewPlate, PerkinElmer) were coated with PDL (poly-D-lysine, Sigma). For each well, 1,300 B2-17 cells were plated by using a Matrix Wellmate microplate dispenser (Thermo Scientific). Then, 0.25 μL of compound was added to each well by using a versatile pipetting robot, the Biomek FX workstation (Beckman Coulter), to give a final compound concentration of 5 μM. After treatment for 72 h, the cell nuclei were stained by Hoechst 33342 (Sigma) before imaging.
The cells were imaged with Opera LX (PerkinElmer, three views per well by using 10 x (air) objective lens). Images were analyzed with the Columbus system, the mean percentage of EGFP+ cells (RGFP) was obtained to extrapolate the number of EGFP expressing cells and Hoechst-stained nuclei.
For the titration assay, the positive compounds were diluted in DMSO at concentrations ranging from 0.625 to 4 mM. Then, the B2-17 cells were treated by gradient compound and imaged as described before.
For each compound, a dose-response series was generated by using Origin 6.0 Pro software. The dot plot was fit by a DoseResp curve and then the EC50 was calculated.
A general note: In a reporter assay the amount or activity of a reporter protein is the signal.

For a further data set, the system named is HEK 293 F cells. The data set is described as follows: Viability assays (CellTiter-Glo, ATP). The format is cell-based. The note with it: for IC50: viable cells by ATP quantitation, 3 days incubation, Figure 2 says B2-17 cells, method says HEK 293 F cells, read-out: IC50 (relative half maximal growth inhibitory concentration).
Text: as §1
HEK 293 F cells were plated in 384-well, flat-bottom, tissue culture dishes (Corning) and treated with compounds, incubated 3 days, and assayed for viability using the CellTiter-Glo Luminescent Cell Viability Assay (Promega) according to the manufacturer's protocol. The […] with an EnSight plate reader (Perkin Elmer). Data were normalized to the untreated control (100% viability). Each treatment was tested in two independent assays, each containing 3 replicates. The titration-viability curves of each compound were also generated by using Origin 6.0 Pro software.

“Also recorded” adds a separate entry of the source. Like-named read-outs stand apart in the source and are kept apart here.

Consider `N#Cc1ccc(-c2nc3n(CC(=O)c4ccc(Br)cc4)c4ccccc4n3n2)s1` [compound 27, 5-(4-(2-(4-bromophenyl)-2-oxoethyl)-4H-benzo[4,5]imidazo[1,2-b][1,2,4]triazol-2-yl)thiophene-2-carbonitrile], for which the Emax in data set [1] (B2-17 cells, 72 h treatment) is 6%. The “activity of derepressing the EGFP reporter gene silenced by DNA methylation (in words)” value (“activity” below) in data set [1] is reported as “significant decrease or disappearance”.
`O=C(Cn1c2ccc(Br)cc2n2nc(-c3cccs3)nc12)c1ccc(Br)cc1` [17a, 2-(7-bromo-2-(thiophen-2-yl)-4H-benzo[4,5]imidazo[1,2-b][1,2,4]triazol-4-yl)-1-(4-bromophenyl)ethan-1-one]: in data set [1] (B2-17 cells, 72 h treatment), the Emax amounted to 41% and the EC50 was found to be 19.4 µM. Further, in data set [1], the “activity” value is reported as “significantly decreased”. The IC50 with HEK 293 F cells (HEK293F, 72 h) came out at 6.6 µM.
With `O=C(O)c1ccc(C(=O)Cn2c3ccccc3n3nc(-c4cccs4)nc23)cc1` [7j, 4-(2-(2-(thiophen-2-yl)-4H-benzo[4,5]imidazo[1,2-b][1,2,4]triazol-4-yl)acetyl)benzoic acid], the Emax in data set [1] (B2-17 cells, 72 h treatment) worked out at 7%. For the same molecule, in data set [1], the “activity” value is recorded as “decreased to some extent”. In addition, the IC50 with HEK 293 F cells (HEK293F, 72 h) came out at 4.8 µM.
In the case of `O=C(Cn1c2ccccc2n2nc(-c3cccs3)nc12)c1ccc(C(F)(F)F)cc1` [7e, 2-(2-(thiophen-2-yl)-4H-benzo[4,5]imidazo[1,2-b][1,2,4]triazol-4-yl)-1-(4-(trifluoromethyl)phenyl)ethan-1-one], in data set [1] (B2-17 cells, 72 h treatment), the Emax was found to be 81% and the EC50 is 3.7 µM. The “activity” value in data set [1] is recorded as “remained the same”. Also, in the data set on HEK 293 F cells (HEK293F, 72 h), the IC50 turned out to be 4.7 µM.
For `O=C(Cn1c2ccc(Cl)cc2n2nc(-c3cccs3)nc12)c1ccc(Br)cc1` [compound 19, 1-(4-bromophenyl)-2-(7-chloro-2-(thiophen-2-yl)-4H-benzo[4,5]imidazo[1,2-b][1,2,4]triazol-4-yl)ethan-1-one] the same measures were 63%, 14.9 µM, “significantly decreased” and 14.3 µM.
On to `O=C(Cn1c2ccccc2n2nc(-c3cccs3)nc12)c1ccccc1` [7a, 1-phenyl-2-(2-(thiophen-2-yl)-4H-benzo[4,5]imidazo[1,2-b][1,2,4]triazol-4-yl)ethan-1-one], for which, in data set [1] (B2-17 cells, 72 h treatment), the Emax was 7%. Also, the “activity” value in data set [1] is recorded as “lost”. Also, the IC50 in the data set with HEK 293 F cells (HEK293F, 72 h) stood at 1.9 µM.
`O=C(Cn1c2ccccc2n2nc(-c3cccs3)nc12)c1ccc(O)cc1` [7h, 1-(4-hydroxyphenyl)-2-(2-(thiophen-2-yl)-4H-benzo[4,5]imidazo[1,2-b][1,2,4]triazol-4-yl)ethan-1-one]: in data set [1] (B2-17 cells, 72 h treatment), the Emax worked out at 56% and the EC50 was 5.8 µM. In addition, the “activity” value in data set [1] is on record as “decreased to some extent”. For the same molecule, the IC50 in the data set with HEK 293 F cells (HEK293F, 72 h) came to 16.7 µM.
For `COc1ccc(C(=O)Cn2c3ccccc3n3nc(-c4cccs4)nc23)cc1` [7b, 1-(4-methoxyphenyl)-2-(2-(thiophen-2-yl)-4H-benzo[4,5]imidazo[1,2-b][1,2,4]triazol-4-yl)ethan-1-one] the same measures were 23%, 6.2 µM, “decreased to some extent” and 3.1 µM.
As for `COc1ccccc1-c1nc2n(CC(=O)c3ccc(Br)cc3)c3ccccc3n2n1` [22b, 1-(4-bromophenyl)-2-(2-(2-methoxyphenyl)-4H-benzo[4,5]imidazo[1,2-b][1,2,4]triazol-4-yl)ethan-1-one], in data set [1] (B2-17 cells, 72 h treatment), the Emax came out at 21% and the EC50 amounted to 6.8 µM. Moreover, the “activity” value in data set [1] is “decreased significantly or even disappeared”. The IC50 with HEK 293 F cells (HEK293F, 72 h) turned out to be 3.3 µM.
Take “(4-bromophenyl) (2-(thiazol-2-yl)-4H-benzo[4,5] imidazo[1,2-b][1,2,4]triazol-4-yl)methanone [31a]”: in data set [1] (B2-17 cells, 72 h treatment), the “Maximal RGFP% (maximal percentage of EGFP+ cells in the dose-response curve)” value is 4.0%. Moreover, in data set [1], the “activity” value is reported as “disappeared”. The IC50 in the data set on HEK 293 F cells amounted to 7.8 µM.
Turning to `O=C(Cn1c2ccccc2n2nc(-c3cccs3)nc12)c1cccs1` [9c, 1-(thiophen-2-yl)-2-(2-(thiophen-2-yl)-4H-benzo[4,5]imidazo[1,2-b][1,2,4]triazol-4-yl)ethan-1-one], in data set [1] (B2-17 cells, 72 h treatment), the Emax is 40% and the EC50 stood at 2.3 µM. In addition, the IC50 in the data set with HEK 293 F cells (HEK293F, 72 h) worked out at 4.9 µM.
With `COC(=O)c1ccc(C(=O)Cn2c3ccccc3n3nc(-c4cccs4)nc23)cc1` [7d, methyl 4-(2-(2-(thiophen-2-yl)-4H-benzo[4,5]imidazo[1,2-b][1,2,4]triazol-4-yl)acetyl)benzoate], in data set [1] (B2-17 cells, 72 h treatment), the Emax is 73% and the EC50 was found to be 2.4 µM. In data set [1], the “activity” value is recorded as “significantly increased; also recorded: slightly better activity”. Besides, in the data set with HEK 293 F cells (HEK293F, 72 h), the IC50 came out at 10.2 µM. For the same molecule, in the data set with HEK 293 F cells (compared with hit compound LX-3), the “toxicity (in words)” value is on record as “less toxicity”.
In the case of `Cc1ccc(-c2ccc(-c3nc4n(CC(=O)c5ccc(Br)cc5)c5ccccc5n4n3)s2)cc1` [compound 25, 1-(4-bromophenyl)-2-(2-(5-(p-tolyl)thiophen-2-yl)-4H-benzo[4,5]imidazo[1,2-b][1,2,4]triazol-4-yl)ethan-1-one], in data set [1] (B2-17 cells, 72 h treatment), the Emax was 61% and the EC50 worked out at 29.9 µM. Further, the “activity” value in data set [1] was “significant decrease or disappearance”. Moreover, the IC50 with HEK 293 F cells (HEK293F, 72 h) worked out at 10.9 µM.
As for `Cc1cc2c(cc1C)n1nc(-c3cccs3)nc1n2CC(=O)c1ccc(Br)cc1` [14a, 1-(4-bromophenyl)-2-(6,7-dimethyl-2-(thiophen-2-yl)-4H-benzo[4,5]imidazo[1,2-b][1,2,4]triazol-4-yl)ethan-1-one], in data set [1] (B2-17 cells, 72 h treatment), the Emax was 26% and the EC50 came to 28 µM. The “activity” value in data set [1] is given as “significantly decreased”. For the same molecule, in the data set with HEK 293 F cells (HEK293F, 72 h), the IC50 amounted to 3.9 µM.
As for `O=C(Cn1c2ccccc2n2nc(-c3cccs3)nc12)c1ccc(F)cc1F` [7f, 1-(2,4-difluorophenyl)-2-(2-(thiophen-2-yl)-4H-benzo[4,5]imidazo[1,2-b][1,2,4]triazol-4-yl)ethan-1-one], in data set [1] (B2-17 cells, 72 h treatment), the Emax stood at 16%. Besides, the “activity” value in data set [1] is “significantly decreased”. Besides, in the data set with HEK 293 F cells (HEK293F, 72 h), the IC50 amounted to 17.8 µM.
Take `O=C(Cn1c2ccc(Br)cc2n2nc(-c3ccc(Br)s3)nc12)c1ccc(Br)cc1` [17c, 2-(7-bromo-2-(5-bromothiophen-2-yl)-4H-benzo[4,5]imidazo[1,2-b][1,2,4]triazol-4-yl)-1-(4-bromophenyl)ethan-1-one]: in data set [1] (B2-17 cells, 72 h treatment), the Emax was determined as 28% and the EC50 came to 21.8 µM. In the data set on HEK 293 F cells (HEK293F, 72 h), the IC50 was 3.8 µM.
`O=C(Cn1c2ccccc2n2nc(-c3cccs3)nc12)c1ccco1` [9b, 1-(furan-2-yl)-2-(2-(thiophen-2-yl)-4H-benzo[4,5]imidazo[1,2-b][1,2,4]triazol-4-yl)ethan-1-one]: the Emax in data set [1] (B2-17 cells, 72 h treatment) amounted to 6.6%.
As for `Cc1ccsc1-c1nc2n(CC(=O)c3ccc(Br)cc3)c3ccccc3n2n1` [22d, 1-(4-bromophenyl)-2-(2-(3-methylthiophen-2-yl)-4H-benzo[4,5]imidazo[1,2-b][1,2,4]triazol-4-yl)ethan-1-one], the Emax in data set [1] (B2-17 cells, 72 h treatment) amounted to 19%. For the same molecule, the “activity” value in data set [1] was “disappeared”. In addition, the IC50 with HEK 293 F cells (HEK293F, 72 h) worked out at 12.3 µM.
For `CC(C)(C)c1nc2n(CC(=O)c3ccc(Br)cc3)c3ccccc3n2n1` [22g, 1-(4-bromophenyl)-2-(2-(tert-butyl)-4H-benzo[4,5]imidazo[1,2-b][1,2,4]triazol-4-yl)ethan-1-one], the IC50 with HEK 293 F cells (HEK293F, 72 h) came out at 8.3 µM.
